Experimental data: the supplement of paper PMC10307832

Legend:
Assay in all cases: relative viability (nuclei count vs DMSO), 5 days (fraction); higher = more cells survive
[1] = compound: CO[C@H]1C[C@@H]2CC[C@@H](C)[C@@](O)(O2)C(=O)C(=O)N2CCCC[C@H]2C(=O)O[C@H]([C@H](C)C[C@@H]2CC[C@@H](OCCO)[C@H](OC)C2)CC(=O)[C@H](C)/C=C(\C)[C@@H](O)[C@@H](OC)C(=O)[C@H](C)C[C@H](C)/C=C/C=C/C=C/1C [Everolimus] + Cc1cc(Nc2cc(N3CCN(C)CC3)nc(Sc3ccc(NC(=O)C4CC4)cc3)n2)n[nH]1 [Tozasertib] (partner 0.1 µM)
In short: (§1)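 Lung cancer cell lines in 1536-well plates were dosed by pin tool the day after seeding, either with one drug alone or with a fixed anchor-drug dose plus five library-drug doses (not always all listed) in √10 steps. After 5 days, cells were fixed and their nuclei stained in one step (final 0.05% Triton X-100, 1% formaldehyde, 1 ug/ml Hoechst), then counted on 4× images. Relative viability is the nuclei count in treated wells divided by that in vehicle wells. Values are medians of duplicate plates.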

[2] = compound: CO[C@H]1C[C@@H]2CC[C@@H](C)[C@@](O)(O2)C(=O)C(=O)N2CCCC[C@H]2C(=O)O[C@H]([C@H](C)C[C@@H]2CC[C@@H](OCCO)[C@H](OC)C2)CC(=O)[C@H](C)/C=C(\C)[C@@H](O)[C@@H](OC)C(=O)[C@H](C)C[C@H](C)/C=C/C=C/C=C/1C [Everolimus] + O=C(CCCCCCC(=O)Nc1ccccc1)NO [Vorinostat] (partner 1 µM)
In short: as §1

[3] = compound: CO[C@H]1C[C@@H]2CC[C@@H](C)[C@@](O)(O2)C(=O)C(=O)N2CCCC[C@H]2C(=O)O[C@H]([C@H](C)C[C@@H]2CC[C@@H](OCCO)[C@H](OC)C2)CC(=O)[C@H](C)/C=C(\C)[C@@H](O)[C@@H](OC)C(=O)[C@H](C)C[C@H](C)/C=C/C=C/C=C/1C [Everolimus] + C[C@@H](Oc1cc(-c2cnn(C3CCNCC3)c2)cnc1N)c1c(Cl)ccc(F)c1Cl [Crizotinib] (partner 1 µM)
In short: as §1

[4] = compound: CO[C@H]1C[C@@H]2CC[C@@H](C)[C@@](O)(O2)C(=O)C(=O)N2CCCC[C@H]2C(=O)O[C@H]([C@H](C)C[C@@H]2CC[C@@H](OCCO)[C@H](OC)C2)CC(=O)[C@H](C)/C=C(\C)[C@@H](O)[C@@H](OC)C(=O)[C@H](C)C[C@H](C)/C=C/C=C/C=C/1C [Everolimus] + CC1(C)CCC(c2ccc(Cl)cc2)=C(CN2CCN(c3ccc(C(=O)NS(=O)(=O)c4ccc(N[C@H](CCN5CCOCC5)CSc5ccccc5)c(S(=O)(=O)C(F)(F)F)c4)cc3)CC2)C1 [Navitoclax] (partner 0.5 µM)
In short: as §1

Row | Cell Line | relative viability ([1]; first compound 0.01 µM) | relative viability ([1]; first compound 0.03162 µM) | relative viability ([1]; first compound 0.1 µM) | relative viability ([1]; first compound 0.3162 µM) | relative viability ([1]; first compound 1 µM) | relative viability ([2]; first compound 0.01 µM) | relative viability ([2]; first compound 0.03162 µM) | relative viability ([2]; first compound 0.1 µM) | relative viability ([2]; first compound 0.3162 µM) | relative viability ([2]; first compound 1 µM) | relative viability ([3]; first compound 0.01 µM) | relative viability ([3]; first compound 0.03162 µM) | relative viability ([3]; first compound 0.1 µM) | relative viability ([3]; first compound 0.3162 µM) | relative viability ([3]; first compound 1 µM) | relative viability ([4]; first compound 0.01 µM) | relative viability ([4]; first compound 0.03162 µM) | relative viability ([4]; first compound 0.1 µM) | relative viability ([4]; first compound 0.3162 µM) | relative viability ([4]; first compound 1 µM)
1 | NCI-H647 | 0.28 | 0.281 | 0.198 | 0.344 | 0.14 | 0.309 | 0.165 | 0.132 | 0.189 | 0.24 | 0.582 | 0.771 | 0.596 | 0.582 | 0.709 | 0.782 | 0.659 | 0.609 | 0.646 | 0.748
2 | LC-2-ad | 0.434 | 0.384 | 0.385 | 0.423 | 0.343 | 0.851 | 0.865 | 0.759 | 0.79 | 0.728 | 0.542 | 0.48 | 0.384 | 0.449 | 0.417 | 0.339 | 0.245 | 0.284 | 0.245 | 0.236
3 | NCI-H1793 | 0.253 | 0.197 | 0.234 | 0.203 | 0.188 | 0.344 | 0.288 | 0.322 | 0.356 | 0.251 | – | – | – | – | – | 0.285 | 0.165 | 0.247 | 0.258 | 0.184
4 | HCC-827 | 0.451 | 0.417 | 0.404 | 0.378 | 0.366 | 0.643 | 0.578 | 0.709 | 0.827 | 0.794 | 0.947 | 0.831 | 0.852 | 0.998 | 0.839 | 1.02 | 1.07 | 0.99 | 1.04 | 0.987
5 | NCI-H1648 | 0.41 | 0.776 | 0.585 | 0.549 | 0.388 | 0.422 | 0.383 | 0.307 | 0.423 | 0.406 | – | – | – | – | – | – | – | – | – | –
6 | ABC-1 | 0.183 | 0.172 | 0.163 | 0.193 | 0.208 | 0.56 | – | 0.741 | – | 0.941 | 0.74 | 0.799 | 0.709 | 0.584 | 0.761 | – | – | – | – | –
7 | NCI-H661 | 0.363 | 0.368 | 0.391 | 0.359 | 0.376 | 0.607 | 0.687 | 0.671 | 0.678 | 0.555 | 1.1 | 1.07 | 0.977 | 0.837 | 0.814 | – | – | – | – | –
8 | NCI-H358 | 0.0999 | 0.106 | 0.0871 | 0.101 | 0.0971 | 0.431 | 0.434 | 0.388 | 0.417 | 0.47 | 0.528 | 0.592 | 0.509 | 0.542 | 0.429 | – | – | – | – | –
9 | IA-LM | – | – | – | – | – | 0.815 | 0.83 | 0.425 | 0.342 | 0.352 | 0.418 | 0.424 | 0.256 | 0.478 | 0.441 | 0.314 | 0.317 | 0.395 | 0.389 | 0.302
10 | EBC-1 | – | – | – | – | – | – | – | – | – | – | 0.188 | 0.17 | 0.152 | 0.206 | 0.185 | 0.211 | 0.217 | 0.153 | 0.22 | 0.222
11 | NCI-H1299 | – | – | – | – | – | – | – | – | – | – | 0.953 | 0.967 | 0.968 | 0.936 | 1.09 | 1.03 | 1.03 | 1.04 | 1.08 | 1.07
12 | NCI-H650 | 0.738 | – | 0.604 | 0.589 | 0.45 | 0.324 | 0.212 | 0.293 | 0.212 | 0.254 | 0.672 | – | 0.582 | 0.588 | 0.428 | – | – | – | – | –
13 | NCI-H1792 | – | – | – | – | – | – | – | – | – | – | 0.865 | 0.769 | 0.724 | 0.583 | 0.644 | 0.316 | 0.251 | 0.29 | 0.244 | 0.362
14 | Calu-6 | – | – | – | – | – | – | – | – | – | – | 0.808 | 0.692 | 0.642 | 0.674 | 0.748 | 0.774 | 0.714 | 0.779 | 0.7 | 0.532
15 | A549 | – | – | – | – | – | – | – | – | – | – | 0.416 | 0.415 | 0.306 | 0.401 | 0.369 | 0.64 | 0.455 | 0.452 | 0.474 | 0.458
16 | NCI-H522 | 0.584 | 0.432 | 0.409 | 0.505 | 0.458 | 0.788 | 0.784 | 0.589 | 0.726 | 0.731 | – | – | – | – | – | – | – | – | – | –
17 | NCI-H1703 | – | – | – | – | – | – | – | – | – | – | 0.344 | 0.316 | 0.276 | 0.395 | 0.454 | 0.443 | 0.453 | 0.553 | 0.457 | 0.671
18 | LCLC-103H | 0.459 | 0.451 | 0.4 | 0.446 | 0.322 | 0.747 | 0.755 | 0.734 | 0.712 | 0.617 | 1.1 | 0.943 | 1.03 | 0.841 | 0.818 | – | – | – | – | –
19 | NCI-H1563 | – | – | – | – | – | – | – | – | – | – | 0.673 | 0.654 | 0.682 | 0.684 | 0.692 | – | – | – | – | –
20 | NCI-H1395 | 0.56 | 0.56 | 0.493 | 0.523 | 0.507 | 0.549 | 0.33 | 0.505 | 0.478 | 0.58 | – | – | – | – | – | 1.06 | 0.886 | 0.857 | 0.83 | 0.763
